Laboratory results taken from paper PMC7849013, “Structural Investigations of the Inhibition of Escherichia coli AmpC β-Lactamase by Diazabicyclooctanes” (Antimicrobial Agents and Chemotherapy, 2021).
≈ marks a conversion by molar mass, not a printed value. Where “and” joins values, the source holds several entries; their conditions need not be identical. Equal entries are not always repeated.

Experiments:
[1] = target: T1, AmpC SBL from Escherichia coli (AmpCEC) (Escherichia coli, UniProt P00811); assay: Jump-dilution off-rate of AmpCEC-DBO carbamoyl complexes (FC-5); type: biochemical; settings: jump dilution 100,000-fold; 1 μM AmpCEC preincubated with 10 μM DBO 30 min at room temperature; 25 μM FC-5
T1 construct: made in house
T1 sequence (P00811 20-377): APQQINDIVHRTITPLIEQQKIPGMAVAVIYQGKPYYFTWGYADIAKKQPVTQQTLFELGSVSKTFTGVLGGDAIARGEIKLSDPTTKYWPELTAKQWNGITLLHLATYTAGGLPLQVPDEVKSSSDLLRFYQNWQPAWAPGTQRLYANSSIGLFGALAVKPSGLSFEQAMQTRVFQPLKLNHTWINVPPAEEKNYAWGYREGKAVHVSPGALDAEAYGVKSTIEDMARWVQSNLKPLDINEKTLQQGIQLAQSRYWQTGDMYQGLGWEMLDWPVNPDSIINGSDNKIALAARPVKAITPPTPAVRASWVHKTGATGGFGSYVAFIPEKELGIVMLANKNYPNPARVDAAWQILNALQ
Protocol: Assays were performed and analyzed as described previously ([34]). In summary, assays in the presence of inhibitors were carried out under steady-state conditions monitoring hydrolysis of the fluorescent substrate FC-5 ([33]) in 100 mM phosphate buffer, pH 7.5, supplemented with 0.01% (vol/vol) Triton X-100. Fluorescence was measured using a PHERAstar (BMG Labtech) plate reader, recording emission spectra at an excitation wavelength of 380 nm and emission wavelength of 460 nm. […] The pseudo first-order rate constant, kobs, and the apparent inhibition constant, Kiapp, were obtained by assaying 100 nM AmpCEC with 5 μM FC-5 in the presence of various concentrations of the inhibitor. Reactions were initiated by addition of AmpCEC and immediately monitored continuously over 30 s. […] The second-order rate constant (k2/K) was obtained from linear regression of measured kobs values against inhibitor concentrations (see Fig. S3b in the supplemental material) and corrected by the Michaelis constant (Km) and concentration of the substrate. Kiapps ([50]) were determined by linear regression of the reciprocals of the initial rates against inhibitor concentration (Fig. S3a) and corrected using the experimentally determined substrate Km and substrate concentration. […] Off rates were determined from exponential regression in relation to turnover of no enzyme and no inhibitor controls (Fig. S3c). […]

[2] = target: T1, AmpC SBL from Escherichia coli (AmpCEC); assay: AmpCEC inhibition pIC50 with varied preincubation time and pH (FC-5); type: biochemical
[3] = target: T1, AmpC SBL from Escherichia coli (AmpCEC); assay: Steady-state competitive inhibition kinetics of AmpCEC with fluorescent substrate FC-5 (kobs, Kiapp, k2/K); type: biochemical
Protocol: (§1) Assays were performed and analyzed as described previously ([34]). In summary, assays in the presence of inhibitors were carried out under steady-state conditions monitoring hydrolysis of the fluorescent substrate FC-5 ([33]) in 100 mM phosphate buffer, pH 7.5, supplemented with 0.01% (vol/vol) Triton X-100. Fluorescence was measured using a PHERAstar (BMG Labtech) plate reader, recording emission spectra at an excitation wavelength of 380 nm and emission wavelength of 460 nm. […] The pseudo first-order rate constant, kobs, and the apparent inhibition constant, Kiapp, were obtained by assaying 100 nM AmpCEC with 5 μM FC-5 in the presence of various concentrations of the inhibitor. Reactions were initiated by addition of AmpCEC and immediately monitored continuously over 30 s. […] The second-order rate constant (k2/K) was obtained from linear regression of measured kobs values against inhibitor concentrations (see Fig. S3b in the supplemental material) and corrected by the Michaelis constant (Km) and concentration of the substrate. Kiapps ([50]) were determined by linear regression of the reciprocals of the initial rates against inhibitor concentration (Fig. S3a) and corrected using the experimentally determined substrate Km and substrate concentration. Inhibitor off rates (koff) were measured using the jump-dilution method ([51]); thus, AmpCEC (1 μM) was incubated with the respective inhibitor (10 μM) for 30 min at room temperature and diluted 100,000-fold in the assay buffer to a final enzyme concentration of 10 pM and then immediately assayed using 25 μM (final concentration) FC-5. Off rates were determined from exponential regression in relation to turnover of no enzyme and no inhibitor controls (Fig. S3c). Half-lives of the enzyme-inhibitor complexes were directly calculated from the measured koff values.
Figure S1: Progression curves used in kobs determinations. AmpCEC (100 nM) was assayed using FC-5 (5 μM)
Reactions were initiated by addition of
AmpCEC and immediately monitored, as described in Materials and Methods. Buffer: 50 mM phosphate buffer, pH
7.5 and 0.01% (v/v) Triton X-100. Curves were fitted to Equation 5.
(A) Determination of Kiapp values
for AmpCEC inhibition by DBOs. […]

[4] = target: T1, AmpC SBL from Escherichia coli (AmpCEC); assay: AmpCEC inhibition pIC50 with varied preincubation time and pH (FC-5); type: biochemical; remark: listed apart in the source
Protocol: as §1
pre-incubated with the inhibitors for the indicated times at room temperature and assayed using 5 μM FC-5 [1].
(1 picture or pasted object on this page, not shown here)
AmpCEC (500 pM) was preincubated
with the inhibitors for the indicated times at room temperature, then assayed using 5 μM FC-5 [1]. Buffer: 50 mM
regression (Figure S2), as described in the Materials and Methods.

E. coli ATCC 25922 = test system: E. coli ATCC 25922; set-up: method as in PMID 30861342; settings: E. coli ATCC 25922, compound alone; cited from earlier work
[5] = test system: DH5α E. coli containing the pAD7-AmpCEC plasmid; assay: MIC by broth microdilution, AmpCEC-producing strain; type: cell-based, Escherichia coli; settings: for MIC: Escherichia coli, read-out: Minimum Inhibitory Concentration, compound alone, DH5α pAD7 AmpCEC
Protocol: (§2) MICs were determined by broth microdilutions in triplicate and interpreted using published guidelines described by the CLSI. […] DBOs were also tested as the sole administered antimicrobial (0.25 to 256 μg ml^−1) against both strains (Table S5).

[6] = test system: DH5α Escherichia coli (wt); assay: MIC by broth microdilution, wild-type strain; type: cell-based; settings: compound alone, read-out: Minimum Inhibitory Concentration
Protocol: as §2

ADC-7 = test system: ADC-7; set-up: method as in earlier work; settings: ref [2], cited from earlier work; for Ki: read-out: Kiapp
PDC-3 = test system: PDC-3; set-up: method as in earlier work; settings: ref [2]; cited from earlier work
PDC-1 = test system: PDC-1; set-up: method as in earlier work; settings: ref [2]; cited from earlier work
[7] = pIC50, 0 min preincubation, pH 7.0
[8] = pIC50, 0 min preincubation, pH 8.0
[9] = pIC50, 10 min preincubation, pH 7.0
[10] = pIC50, 10 min preincubation, pH 8.0
[11] = pIC50, 30 min preincubation, pH 7.0
[12] = pIC50, 60 min preincubation, pH 7.0
[13] = pIC50, 60 min preincubation, pH 8.0
[14] = pIC50, 360 min preincubation, pH 7.0
[15] = pIC50, 360 min preincubation, pH 8.0
[16] = [DBO] 5.00 µM, 100 nM AmpCEC, 5 μM FC-5
[17] = pIC50, 0 min preincubation, pH 7.5, 500 pM AmpCEC, 5 μM FC-5
[18] = pIC50, 10 min preincubation, pH 7.5
[19] = pIC50, 30 min preincubation, pH 7.5
[20] = pIC50, 60 min preincubation, pH 7.5
[21] = pIC50, 360 min preincubation, pH 7.5, 500 pM AmpCEC, 5 μM FC-5

Structure (SMILES)	IC50 [2, 7] [nM]	IC50 [2, 8] [nM]	IC50 [2, 9] [nM]	IC50 [2, 10] [nM]	IC50 [2, 11] [nM]	IC50 [2, 12] [nM]	IC50 [2, 13] [nM]	IC50 [2, 14] [nM]	IC50 [2, 15] [nM]	Ki [3] [nM]	kobs ([3]; [DBO] 0.04 µM)	kobs ([3]; [DBO] 0.16 µM)	kobs ([3]; [DBO] 0.31 µM)	kobs ([3]; [DBO] 0.63 µM)	kobs ([3]; [DBO] 1.25 µM)	kobs [3, 16]	IC50 [4, 17] [nM]	MIC (E. coli ATCC 25922) [µg/mL]	MIC [5] [µg/mL]	MIC [6] [µg/mL]	other results
NCCONC(=O)[C@@H]1CC[C@@H]2CN1C(=O)N2OS(=O)(=O)O [NAC, nacubactam]	200	141	91.2	58.9	31.6	16.2	15.1	6.46	5.13	5000 ± 100	0.142 ± 0.003	0.142 ± 0.003	0.153 ± 0.005	0.153 ± 0.002	0.185 ± 0.003	0.393 ± 0.008	178	2 (≈ 6.17 µM)	4 (≈ 12.3 µM)	2 (≈ 6.17 µM)	koff (decarbamoylation rate) [1]: 0.049 s^−1, ×10^−3 and 0.049 ± 0.01 s^−1, ×10^−3; kinact/KI ([3]; pH 7.5, read-out: k2/K (carbamoylation rate)): 52000 ± 2000 M⁻¹ s⁻¹; IC50 [4, 18]: 66.1 nM; IC50 [4, 19]: 34.7 nM; IC50 [4, 20]: 13.8 nM; IC50 [4, 21]: 2.95 nM; Minimum Inhibitory Concentration ([5]; compound alone, DH5α pAD7 AmpCEC): 2 µg/mL
O=C(NC1CCNCC1)[C@@H]1CC[C@@H]2CN1C(=O)N2OS(=O)(=O)O [REL, relebactam]	166	158	115	63.1	49	17.4	13.2	4.17	10.5	7100 ± 300	0.134 ± 0.007	0.138 ± 0.003	0.136 ± 0.002	0.143 ± 0.002	0.167 ± 0.005	0.314 ± 0.012	245	> 64	128 (≈ 367 µM)	128 (≈ 367 µM)	k2/K (ADC-7): 7.8 ± 0.8 (M-1s-1) x 10 3; t1/2 (ADC-7): 39 ± 4 min; k2/K (PDC-3): 46 ± 5 (M-1s-1) x 10 3; t1/2 (PDC-3): 13 ± 4 min; IC50 [4, 18]: 107 nM; IC50 [4, 19]: 34.7 nM; IC50 [4, 20]: 20.4 nM; IC50 [4, 21]: 3.89 nM
O=C(NNC(=O)[C@@H]1CC[C@@H]2CN1C(=O)N2OS(=O)(=O)O)[C@@H]1CCCNC1 [ZID, zidebactam]	34.7	17	16.6	8.13	8.71	5.75	3.89	5.25	4.37	690 ± 40	0.150 ± 0.002	0.183 ± 0.002	0.246 ± 0.002	0.357 ± 0.003	–	–	25.1	0.125 (≈ 0.319 µM)	≤ 0.25	≤ 0.25	Ki (ADC-7): 2300 ± 300 nM; k2/K (ADC-7): 35 ± 4 (M-1s-1) x 10 3; t1/2 (ADC-7): 11 ± 1 min; k2/K (PDC-3): 480 ± 70 (M-1s-1) x 10 3; t1/2 (PDC-3): 3 ± 0.4 min; IC50 [4, 18]: 11 nM; IC50 [4, 19]: 7.59 nM; IC50 [4, 20]: 4.68 nM; IC50 [4, 21]: 3.47 nM
NC(=O)[C@@H]1CC[C@@H]2CN1C(=O)N2OS(=O)(=O)O [AVI, avibactam]	–	–	–	–	–	–	–	–	–	–	0.135 ± 0.002	0.134 ± 0.001	0.135 ± 0.006	0.144 ± 0.002	0.168 ± 0.008	0.305 ± 0.004	–	16 (≈ 60.3 µM)	16 (≈ 60.3 µM)	16 (≈ 60.3 µM)	k2/K (PDC-1): 2900 (M-1s-1) x 10 3; t1/2 (PDC-1): 6 min; Ki (ADC-7): 19000 ± 2000 nM; k2/K (ADC-7): 3.9 ± 0.4 (M-1s-1) x 10 3; t1/2 (ADC-7): 33 ± 5 min; k2/K (PDC-3): 29 (M-1s-1) x 10 3; t1/2 (PDC-3): 14 min
CC(C)(O/N=C(\C(=O)N[C@@H]1C(=O)N2C(C(=O)[O-])=C(C[n+]3ccccc3)CS[C@H]12)c1csc(N)n1)C(=O)O [CAZ, ceftazidime]	–	–	–	–	–	–	–	–	–	–	–	–	–	–	–	–	–	–	256 (≈ 468 µM)	1 (≈ 1.83 µM)	–
